Assay results taken from PubChem BioAssay AID248 (DTP/NCI, 2004).
Toxic doses and inconclusive results are not listed. No stated cut-off is given here; in the data, active means T/C of 150% or more; inactive means T/C below 125%.

System: L1210 leukemia ip in BDF1 mice, survival T/C
Experiment: NCI In Vivo Anticancer Drug Screen. Data for tumor model L1210 Leukemia (intraperitoneal) in B6D2F1 (BDF1) mice
Conditions: endpoint: mean survival time, higher = longer survival
How it was run: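 Tumor cells were implanted, animals were treated, and survival was followed. The result divides the treated measurement by the vehicle-control measurement.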

[1] = dose: 100.0 mg/kg/injection, schedule: Q01DX009 (ip), vehicle: saline with Tween-80
[2] = dose: 100.0 mg/kg/injection, schedule: Q01DX001 (ip), vehicle: Klucel (hydroxypropylcellulose) (HPC)
[3] = dose: 100.0 mg/kg/injection, schedule: Q04DX003 (ip), vehicle: Klucel (hydroxypropylcellulose) (HPC)
[4] = dose: 200.0 mg/kg/injection, schedule: Q04DX003 (ip), vehicle: Klucel (hydroxypropylcellulose) (HPC)
[5] = dose: 100.0 mg/kg/injection, schedule: Q01DX001 (ip), vehicle: saline
[6] = dose: 200.0 mg/kg/injection, schedule: Q01DX001 (ip), vehicle: saline
[7] = dose: 400.0 mg/kg/injection, schedule: Q01DX001 (ip), vehicle: saline
[8] = dose: 100.0 mg/kg/injection, schedule: Q04DX003 (ip), vehicle: saline with Tween-80
[9] = dose: 200.0 mg/kg/injection, schedule: Q04DX003 (ip), vehicle: saline with Tween-80
[10] = dose: 400.0 mg/kg/injection, schedule: Q04DX003 (ip), vehicle: saline with Tween-80
[11] = dose: 50.0 mg/kg/injection, schedule: Q01DX009 (ip), vehicle: Klucel (hydroxypropylcellulose) (HPC)

Measured: T/C

O=C(Nc1ccccc1[N+](=O)[O-])c1ccccc1
inactive: [1] 111 % of control | dose: 200.0 mg/kg/injection, schedule: Q01DX009 (ip), vehicle: saline with Tween-80 106 % of control | dose: 400.0 mg/kg/injection, schedule: Q01DX009 (ip), vehicle: saline with Tween-80 106 % of control

CS(=O)c1ccc2c(c1)-c1ccccc1C2=O (centres undefined)
inactive: dose: 50.0 mg/kg/injection, schedule: Q01DX001 (ip), vehicle: carboxymethylcellulose (CMC) 95 % of control | dose: 100.0 mg/kg/injection, schedule: Q01DX001 (ip), vehicle: carboxymethylcellulose (CMC) 101 % of control | dose: 200.0 mg/kg/injection, schedule: Q01DX001 (ip), vehicle: carboxymethylcellulose (CMC) 95 % of control | dose: 400.0 mg/kg/injection, schedule: Q01DX001 (ip), vehicle: carboxymethylcellulose (CMC) 101 % of control

FC(F)(F)c1ccc(Cl)c(NC2=NCCS2)c1
inactive: [2] 114 % of control | [3] 97 % of control | dose: 200.0 mg/kg/injection, schedule: Q01DX001 (ip), vehicle: Klucel (hydroxypropylcellulose) (HPC) 103 % of control | [4] 98 % of control | dose: 400.0 mg/kg/injection, schedule: Q01DX001 (ip), vehicle: Klucel (hydroxypropylcellulose) (HPC) 97 % of control | dose: 400.0 mg/kg/injection, schedule: Q04DX003 (ip), vehicle: Klucel (hydroxypropylcellulose) (HPC) 88 % of control

Cc1csc2ccc([N+](=O)[O-])cc12
inactive: [5] 106 % of control | [6] 101 % of control | [7] 101 % of control

CN1CCN(Cc2cc(C(C)(C)C)cc(-c3ccccc3)c2O)CC1
inactive: dose: 100.0 mg/kg/injection, schedule: Q04DX003 (ip), vehicle: saline 92 % of control | dose: 200.0 mg/kg/injection, schedule: Q04DX003 (ip), vehicle: saline 102 % of control | dose: 400.0 mg/kg/injection, schedule: Q04DX003 (ip), vehicle: saline 110 % of control

CC1(C)CC(=O)C=C(N)C1
inactive: [8] 97 % of control | [9] 92 % of control | [10] 95 % of control

CC(Cc1ccccc1)N(C)N (centres undefined)
inactive: dose: 1.56 mg/kg/injection, schedule: Q01DX009 (ip), vehicle: saline 94 % of control | dose: 3.12 mg/kg/injection, schedule: Q01DX009 (ip), vehicle: saline 102 % of control | dose: 6.25 mg/kg/injection, schedule: Q01DX009 (ip), vehicle: saline 91 % of control | dose: 12.5 mg/kg/injection, schedule: Q01DX009 (ip), vehicle: saline 88 % of control | dose: 25.0 mg/kg/injection, schedule: Q01DX009 (ip), vehicle: saline 102 % of control

CN(C)n1cc(C#N)c(=O)[nH]c1=O
inactive: [11] 90 % of control | dose: 100.0 mg/kg/injection, schedule: Q01DX009 (ip), vehicle: Klucel (hydroxypropylcellulose) (HPC) 90 % of control | [3] 100 % of control | dose: 200.0 mg/kg/injection, schedule: Q01DX009 (ip), vehicle: Klucel (hydroxypropylcellulose) (HPC) 100 % of control | [4] 97 % of control

CCC[CH2][Sn]([CH2]CCC)([CH2]CCC)[S]C(=S)NCCNC(=S)[S][Sn]([CH2]CCC)([CH2]CCC)[CH2]CCC
inactive: dose: 0.5 mg/kg/injection, schedule: Q01DX015 (ip), vehicle: carboxymethylcellulose (CMC) 101 % of control | dose: 1.0 mg/kg/injection, schedule: Q01DX015 (ip), vehicle: carboxymethylcellulose (CMC) 103 % of control | dose: 2.5 mg/kg/injection, schedule: Q01DX001 (ip), vehicle: saline 108 % of control | dose: 2.5 mg/kg/injection, schedule: Q01DX015 (ip), vehicle: carboxymethylcellulose (CMC) 110 % of control | dose: 5.0 mg/kg/injection, schedule: Q01DX001 (ip), vehicle: saline 108 % of control | dose: 5.0 mg/kg/injection, schedule: Q01DX015 (ip), vehicle: carboxymethylcellulose (CMC) 103 % of control | dose: 10.0 mg/kg/injection, schedule: Q01DX001 (ip), vehicle: saline 101 % of control | dose: 10.0 mg/kg/injection, schedule: Q01DX015 (ip), vehicle: carboxymethylcellulose (CMC) 113 % of control | dose: 20.0 mg/kg/injection, schedule: Q01DX015 (ip), vehicle: carboxymethylcellulose (CMC) 101 % of control | dose: 30.0 micrograms/kg/injection, schedule: Q01DX015 (ip), vehicle: carboxymethylcellulose (CMC) 106 % of control | dose: 60.0 micrograms/kg/injection, schedule: Q01DX015 (ip), vehicle: carboxymethylcellulose (CMC) 110 % of control | dose: 120.0 micrograms/kg/injection, schedule: Q01DX015 (ip), vehicle: carboxymethylcellulose (CMC) 102 % of control | dose: 240.0 micrograms/kg/injection, schedule: Q01DX015 (ip), vehicle: carboxymethylcellulose (CMC) 102 % of control

CCCCCC(C)NCC(C)(C)O (centres undefined)
inactive: dose: 75.0 mg/kg/injection, schedule: Q01DX001 (ip), vehicle: acid diluted with saline 102 % of control

Cc1ccc(Cl)cc1NC(=O)c1ccc([N+](=O)[O-])cc1
inactive: dose: 50.0 mg/kg/injection, schedule: Q01DX009 (ip), vehicle: saline with Tween-80 91 % of control | [1] 86 % of control

CCCCCCCCCCOC(=O)CCN1CC1
inactive: [8] 109 % of control | [9] 96 % of control

COC(=O)C#CC(c1ccccc1)(c1ccccc1)c1ccccc1
inactive: [8] 90 % of control | [9] 87 % of control | [10] 90 % of control

CC(=O)OC1CC2c3ccccc3C1c1cccc[n+]12 (centres undefined)
inactive: dose: 12.5 mg/kg/injection, schedule: Q01DX001 (ip), vehicle: Klucel (hydroxypropylcellulose) (HPC) 97 % of control | dose: 12.5 mg/kg/injection, schedule: Q01DX009 (ip), vehicle: Klucel (hydroxypropylcellulose) (HPC) 100 % of control | dose: 25.0 mg/kg/injection, schedule: Q01DX001 (ip), vehicle: Klucel (hydroxypropylcellulose) (HPC) 101 % of control | dose: 25.0 mg/kg/injection, schedule: Q01DX009 (ip), vehicle: Klucel (hydroxypropylcellulose) (HPC) 102 % of control | dose: 25.0 mg/kg/injection, schedule: Q04DX003 (ip), vehicle: Klucel (hydroxypropylcellulose) (HPC) 101 % of control | dose: 50.0 mg/kg/injection, schedule: Q01DX001 (ip), vehicle: Klucel (hydroxypropylcellulose) (HPC) 105 % of control | [11] 104 % of control | dose: 50.0 mg/kg/injection, schedule: Q04DX003 (ip), vehicle: Klucel (hydroxypropylcellulose) (HPC) 94 % of control | dose: 75.0 mg/kg/injection, schedule: Q01DX009 (ip), vehicle: Klucel (hydroxypropylcellulose) (HPC) 88 % of control | [2] 101 % of control

COC1CCC(N)CC1 (centres undefined)
inactive: [5] 109 % of control | [6] 107 % of control | [7] 97 % of control

O=C(c1ccc(C(=O)N2CC2)cc1)N1CC1
inactive: dose: 5.0 mg/kg/injection, schedule: Q04DX003 (ip), vehicle: carboxymethylcellulose (CMC) 106 % of control | dose: 10.0 mg/kg/injection, schedule: Q04DX003 (ip), vehicle: carboxymethylcellulose (CMC) 97 % of control | dose: 20.0 mg/kg/injection, schedule: Q01DX001 (ip), vehicle: carboxymethylcellulose (CMC) 103 % of control | dose: 20.0 mg/kg/injection, schedule: Q04DX003 (ip), vehicle: carboxymethylcellulose (CMC) 94 % of control

CCOP1(=O)NC(=O)C=C(C)N1 (centres undefined)
inactive: dose: 60.0 mg/kg/injection, schedule: Q04DX002 (ip), vehicle: sodium bicarbonate 102 % of control | dose: 120.0 mg/kg/injection, schedule: Q04DX002 (ip), vehicle: sodium bicarbonate 97 % of control

O=C1C=CC(=NCC(=O)OCc2ccccc2)O1
inactive: dose: 200.0 mg/kg/injection, schedule: Q04DX003 (ip), vehicle: acetone 91 % of control | dose: 400.0 mg/kg/injection, schedule: Q04DX003 (ip), vehicle: acetone 90 % of control
